# According to US10196606B2, “Method of producing multipotent stem cells” (FLINDERS UNIVERSITY OF SOUTH AUSTRALIA, priority 2011, dated 2019):
# Columns and labels:
# Format in all cases: cell-based
# [1] = system: mouse embryonic fibroblasts (MEF); test: Induction of SMINS cells / ALP-positive neurospheres from MEF, 6 induction cycles; conditions: withdrawal of individual small molecules from the combination
# Protocol: (§1) Mouse embryonic fibroblasts (MEF) and mouse adult tail-tip fibroblasts (TTF) were isolated from C57/BL6 mice as described previously^2. Both cell types (ie MEF and TTF) were cultured in MEF medium (Dulbecco's Modified Eagle Medium (DMEM; Invitrogen Corporation, Carlsbad, Calif., United States of America) containing 10% Fetal Bovine Serum (FBS; Thermo Fisher Scientific, Waltham, Mass., United. States of America), 50 units/ml penicillin and 50 μg/ml streptomycin (Invitrogen)). Native NS cells were cultured from mouse brain at E12-E14 as positive controls in neural stem (NS) cell media.
# (§2) 35 mm tissue culture dishes were coated with feeder cells (fibroblasts cultured from mouse embryo and seeded at 1.4×10^5 cells per 35 mm tissue culture dish) before induction. The MEF (passage 3) or TTF were seeded at 1.4×10^5 per 35 mm feeder cell-coated dish. The cells were induced in 6 cycles. […] The cells were then cultured in SCM in the absence of the small molecules for the next two days. Then, the cycle was repeated 5 times. Next, the cells were passaged and suspended in a drop of […] containing at least 50 cells for two days. Finally, the cells were cultured in the neural stem (NS) cell medium (DMEM/F12 (Invitrogen) supplemented with B-27 (1:50; Gibco Inc, Billings, Mont., United States of America), 50 units ml^−1 penicillin, 50 μg ml^−1 streptomycin, 8 mM HEPES buffer, 20 ng ml^−1 epidermal growth factor (EGF), 10 ng ml^−1 basic fibroblast growth factor (bFGF) for two weeks.
# (§3) ES culture medium (also referred to as SCM herein) was added to NS and SMINS cells overnight. Alkaline phosphatase staining was carried out according to the manufacturer's protocol (Hoffman-La Roche, Basel, Switzerland). For the immunofluorescence staining, cells were washed with phosphate buffered saline (PBS) and then fixed with 4% paraformaldehyde for 10 min. After washing twice with PBS, the cells were permeabilised with 0.1% Triton X-100 for 20 min. Cells were then washed twice and blocked in blocking buffer (a solution of PBS containing 1% FBS and 4% bovine serum albumin (BSA)) for 1 hour. […]
# [2] = system: mouse adult tail-tip fibroblasts (TTF); test: Induction of SMINS cells / ALP-positive neurospheres from TTF
# Protocol: as §1, §2, §3
# [3] = system: human umbilical cord fibroblast (HUCF) cells; test: Immunocytochemistry of cells induced from HUCF
# Protocol: Cells were induced with small molecules (BIX0124 alone or BIX0125 and RG108 in combination) as described above, with cells cultured in HIPS media at Days 2 and 3. Cells were cultured in NSC media for 0, 2 or 6 days as detailed below. Prior to immunofluorescence staining, cells were dissociated with Tryple-E enzyme as described above, and then incubated overnight at low density on poly-D-lysine coated coverslips in HIPS media prior to immunofluorescence staining.
# Cells were then washed with PBS and then fixed with 4% paraformaldehyde for 10 min. After washing twice with PBS, cells were permeabilised with 0.1% Triton X-100 for 20 min. Cells were then washed twice and blocked in blocking buffer (a solution of PBS containing 1% FBS and 4% BSA) for 1 hour. Primary antibodies were diluted in blocking buffer in the following dilutions: anti-Sox2 (Millipore, 1:200, mouse), anti-SSEA-1 (Santa Cruz Biotechnology, 1:200, mouse), anti-glial fibrillary acidic protein (GFAP; Dako, 1:400, rabbit), anti-Map2 (Osenses, 1:1000, rabbit), anti-Olig2 (Osenses, 1:1000, rabbit), anti-Alpha-tubulin (Sigma, 1:1000, mouse), anti-neural/glial 2 (Abeam, 1:200), anti-nestin (DHSB, 1:1000), anti-Tuj1 Sigma, 1:300 and applied to the cells for 1 hour at room temperature or overnight at 4° C. Cells were washed three times with PBS and then secondary fluorescent antibodies (1:1000, Cy3 or Alexa-488) and counterstain with 10 μg/ml DAPI were applied for 1 hour at room temperature.
# In one experiment, HUCF cells were induced as follows: At passage 17, HUCF cells were negatively selected for p75-NTR and then induced using BIX01294 alone in HIPS media for one day and HIPS media (no small molecules) for two days followed by culture in NSC media for 6 days. Meanwhile control HUCF cells at passage 17 were negatively selected for p75-NTR cells, and then passaged another 5 times. Cells were then stained with mouse anti-p75-NTR-FITC (Biosensis, 1:6, mouse) and counterstained with DAPI as described above.
# [4] = system: human umbilical cord fibroblast (HUCF) cells; test: RT-PCR of cells induced from HUCF; conditions: immediately after induction, prior to culture in NSC media
# Protocol: mRNA was extracted from cells induced using BIX01294 and RG108 in combination or BIX01294 alone. A cell lysate from SKSY5Y cells (a neuroblastoma cell line) was used as a positive control, and HUCF cells at passage 17 following p75-NTR negative selection was used as a negative control. RT-PCR was performed as described in Example 1 for expression of typical neural stem cell genes GFAP, Sox2, Olig2, Nestin, and pluripotent stem cell genes Oct4 and Nanog, and loading control gene GAPDH using the primers described in Example 1.
smiles,measurement,setting,value
"COc1cc2nc(N3CCCN(C)CC3)nc(NC3CCN(Cc4ccccc4)CC3)c2cc1OC.Cl.Cl.Cl.O [BIX01294, 2-(hexahydro-4-methyl-1H-1,4-diazepin-1-yl)-6,7-dimethoxy-N-[1-(phenylmethyl)-4-piperidinyl]-4-quinazolinamine trihydrochloride hydrate]",essential for generation of SMINS-MEF cells,[1],required for the induction
same,ALP-positive neurosphere produced from TTF,[2],No
same,expression of neural stem cell marker nestin,[3]; 6 days in NSC media,additionally express the neural stem cell marker nestin
same,p75-NTR staining versus control p75-NTR negative HUCF,[3]; 6 days in NSC media,marked upregulation
same,"expression of NG2, Olig2, GFAP and Tuj1",[3]; after culture in NSC media,some BIX01294 induced cells express
same,expression of Sox2 and SSEA-1 (immunofluorescence),[3]; culture in NSC media for 0 or 6 days,clearly expressed Sox2 and SSEA-1
same,Sox2 expression (RT-PCR),[4],expressed Sox2 immediately after induction
